Key:
[1] = test system: M0 macrophages; experiment: Western blot (arginase-1) of M0 macrophages with direct addition of genipin to culture medium; type: cell-based, rat; details: for arginase-1 expression in genipin treated M0 (M0-GE): 12.5 μg/ml genipin added directly to culture medium, versus cytokine induced M2
Description: 7b. […] A second set of experiments included the following groups: 1) Tissue culture plate with M0-polarization medium, 2) Tissue culture plate with M1-polarization medium, 3) Tissue culture plate with M2-polarization medium, 4) Tissue culture plate with M0-polarization medium with direct addition of genipin, 5) M0 subtype cells seeded on uncrosslinked collagen threads, 6) M0 subtype cells seeded on genipin crosslinked collagen threads. In this design, Groups 1-3 constitute the positive controls. […] Comparison of group 5 with group 6 determines how genipin crosslinking of collagen affect the polarization status of M0 subtype. For group 4, genipin (Wako Pure Chemical Industries, catalog #078-03021, Richmond, Va.) in 0.1% dimethyl sulfoxide (DMSO, Sigma-Aldrich, USA) (12.5 μg/ml, genipin/DMSO) was directly added to the culture medium. […] Total cell lysate was prepared using RIPA lysis buffer (#50195822), phenylmethylsulfonylfluoride (PMSF) (#NC0417414) and protease/phosphatase inhibitor (#50193743) purchased from Cell Signaling Technology. The protein concentration in the cell lysate was estimated using DC protein assay (BioRad) and 25 μg protein was resolved using 4-20% Mini-PROTEAN gels (#4561094, BioRad) and transferred to a nitrocellulose membrane (#1620213, BioRad). The membrane was blocked in 5% non-fat dry milk/1% Tween 20 for 2 hr at room temperature. They were incubated with primary antibodies anti-Arg1 for M2 (sc-271430), anti-iNOS for M1 (sc-7271), pSTAT6 (#9361S), PPAR-gamma (sc-7273) and anti-GAPDH (sc-365062) as the housekeeping protein overnight at 4° C. Following day, the blots were washed in TBST and incubated with anti-mouse secondary antibody (sc-516102) conjugated with horseradish peroxidase detected by ECL-chemiluminescence, then underwent autoradiography using BioBlue-Lite™ film (Alkali Scientific, FL). Quantitative analysis of the protein bands was performed using the Image J.

[2] = test system: pSTAT6 and PPAR-γ; experiment: Western blot of signaling pathways in genipin induced M2 polarization; type: cell-based, rat; details: genipin treated M0 (M0-GE)
Description: 7c. Investigation of signaling pathways involved in M2 polarization by genipin: A third set of experiments included the following groups: 1) Tissue culture plate with M2-polarization medium, 2) Tissue culture plate with M0-polarization medium with direct addition of genipin, 3) Tissue culture plate with M0-polarization medium. In this design, Groups 1 and 3 represent the positive and negative controls. Total cell lysate was prepared using RIPA lysis buffer (#50195822), phenylmethylsulfonylfluoride (PMSF) (#NC0417414) and protease/phosphatase inhibitor (#50193743) purchased from Cell Signaling Technology. The protein concentration in the cell lysate was estimated using DC protein assay (BioRad) and 25 μg protein was resolved using 4-20% Mini-PROTEAN gels (#4561094, BioRad) and transferred to a nitrocellulose membrane (#1620213, BioRad). The membrane was blocked in 5% non-fat dry milk/1% Tween 20 for 2 hr at room temperature. […] Following day, the blots were washed in TBST and incubated with anti-mouse secondary antibody (sc-516102) conjugated with horseradish peroxidase detected by ECL-chemiluminescence, then underwent autoradiography using BioBlue-Lite™ film (Alkali Scientific, FL). Quantitative analysis of the protein bands was performed using the Image J.

[3] = 12.5 μg/ml; cited from earlier work
[4] = test system: LPS-stimulated RAW 264.7 murine macrophages cell line; details: cited from earlier work
[5] = test system: human endothelial cells; details: cited from earlier work
[6] = test system: LPS-stimulated microglia cells derived from rat brain; details: cited from earlier work

In the case of `COC(=O)C1=CO[C@@H](O)[C@@H]2C(CO)=CC[C@H]12` [genipin], the “arginase-1 expression in genipin treated M0 (M0-GE)” value [1] is reported as “higher than for the M2 subtype induced with standard cytokines”, the “arginase-1 expression in genipin treated M0 (M0-GE)” value ([1]; listed as soluble genipin) is reported as “moderately greater than a potent cytokine” and the “increase in Arg1 expression, soluble genipin compared to genipin presented via crosslinked collagen” value ([1]; M0GE vs. M0GES) is reported as “approximately 3 fold”. For the same compound, the pSTAT6 expression [2] was “significantly higher compared to M2 polarization induced by IL-4”, the “toxicity of genipin concentration” value [3] was “subtoxic” and the “TNF-α and IL-6 (pro-inflammatory markers)” value [4] was “suppress”. The “TNF-α-induced VCAM-1 expression” value [5] was “suppress” and the “IL-10 and TNF-α production” value [6] was “leads to IL-10 and TNF-α production”.
